Test results reported in patent US9423396B2, “Bodipy structure fluorescence probes for diverse biological applications” (National University of Singapore, priority 2011, dated 2016).

Assay: Spectroscopic measurements (absorption, emission, quantum yield, extinction coefficient)
Format: physicochemical
[1] = BDNCA library, extinction coefficient; in M-1 cm-1 (unit assumed)
[2] = BDNCA library, fluorescence emission
[3] = absorption maximum, BDNCA library
[4] = difference of emission and absorption maxima
[5] = extinction coefficient, BDNCA library; in M-1 cm-1 (unit assumed)
[6] = fluorescence emission maximum, BDNCA library
[7] = BDNCA library, difference emission minus absorption

Cc1cc(/C=C/c2ccc(N(C)CCO)cc2)n2c1C(c1ccc(NC(=O)CCl)cc1)=C1C=CC=[N+]1[B-]2(F)F [BDNCA-91]
Qunt. Yield (BDNCA library): weak
Abs (BDNCA library, absorption): 559 nm
ε [1]: 34,050
Flu [2]: weak

CC1=CC(/C=C/c2c[nH]c3ccccc23)=[N+]2C1=C(c1ccc(NC(=O)CCl)cc1)c1cccn1[B-]2(F)F [BDNCA-375]
Abs [3]: 591 nm
Flu-Abs [4]: 63
ε [5]: 21,968
Flu [6]: 654
Qunt. Yield (quantum yield, BDNCA library): 0.02

CC1=CC(/C=C/c2ccc(C)c(F)c2)=[N+]2C1=C(c1ccc(NC(=O)CCl)cc1)c1cccn1[B-]2(F)F [BDNCA-249]
Qunt. Yield (BDNCA library): 0.12
Abs (BDNCA library, absorption): 556 nm
Flu-Abs [7]: 21
ε [1]: 71,945
Flu [2]: 577

CC1=CC(/C=C/c2ccc(C)o2)=[N+]2C1=C(c1ccc(NC(=O)CCl)cc1)c1cccn1[B-]2(F)F [BDNCA-135]
Qunt. Yield (BDNCA library): 0.07
Abs (BDNCA library, absorption): 577 nm
Flu-Abs [7]: 41
ε [1]: 37,346
Flu [2]: 618

CC1=CC(/C=C/c2ccc(Oc3ccccc3)cc2)=[N+]2C1=C(c1ccc(NC(=O)CCl)cc1)c1cccn1[B-]2(F)F [BDNCA-101]
Qunt. Yield (BDNCA library): 0.20
Abs (BDNCA library, absorption): 562 nm
Flu-Abs [7]: 27
ε [1]: 89,245
Flu [2]: 589

COc1ccc(/C=C/c2cc(C)c3n2[B-](F)(F)[N+]2=CC=CC2=C3c2ccc(NC(=O)CCl)cc2)c2ccccc12 [BDNCA-32]
Qunt. Yield (BDNCA library): 0.06
Abs (BDNCA library, absorption): 583 nm
Flu-Abs [7]: 66
ε [1]: 27,735
Flu [2]: 649

CC1=CC(/C=C/c2c(Br)ccc3c2OCO3)=[N+]2C1=C(c1ccc(NC(=O)CCl)cc1)c1cccn1[B-]2(F)F [BDNCA-262]
Qunt. Yield (BDNCA library): 0.07
Abs (BDNCA library, absorption): 561 nm
Flu-Abs [7]: 21
ε [1]: 68,924
Flu [2]: 582

CC1=CC(/C=C/c2ccc(Cl)cc2Cl)=[N+]2C1=C(c1ccc(NC(=O)CCl)cc1)c1cccn1[B-]2(F)F [BDNCA-147]
Qunt. Yield (BDNCA library): 0.07
Abs (BDNCA library, absorption): 557 nm
Flu-Abs [7]: 21
ε [1]: 23,616
Flu [2]: 578

COc1ccc(Oc2ccc(/C=C/c3cc(C)c4n3[B-](F)(F)[N+]3=CC=CC3=C4c3ccc(NC(=O)CCl)cc3)cc2)cc1 [BDNCA-178]
Qunt. Yield (BDNCA library): 0.09
Abs (BDNCA library, absorption): 563 nm
Flu-Abs [7]: 26
ε [1]: 61,785
Flu [2]: 589

CCOc1cccc(/C=C/C2=[N+]3C(=C(c4ccc(NC(=O)CCl)cc4)c4cccn4[B-]3(F)F)C(C)=C2)c1O [BDNCA-126]
Qunt. Yield (BDNCA library): 0.01
Abs (BDNCA library, absorption): 563 nm
Flu-Abs [7]: 15
ε [1]: 37,071
Flu [2]: 578

CC1=CC(/C=C/C=C/c2ccc(N(C)C)cc2)=[N+]2C1=C(c1ccc(NC(=O)CCl)cc1)c1cccn1[B-]2(F)F [BDNCA-96]
Qunt. Yield (BDNCA library): weak
Abs (BDNCA library, absorption): 622 nm
ε [1]: 50,801
Flu [2]: weak

CC1=CC(/C=C/c2ccc(Cl)c(Cl)c2)=[N+]2C1=C(c1ccc(NC(=O)CCl)cc1)c1cccn1[B-]2(F)F [BDNCA-182]
Qunt. Yield (BDNCA library): 0.08
Abs (BDNCA library, absorption): 557 nm
Flu-Abs [7]: 18
ε [1]: 37,620
Flu [2]: 575

CCOc1c(/C=C/C2=[N+]3C(=C(c4ccc(NC(=O)CCl)cc4)c4cccn4[B-]3(F)F)C(C)=C2)cccc1OC [BDNCA-320]
Abs [3]: 557 nm
Flu-Abs [4]: 24
ε [5]: 59,588
Flu [6]: 581
Qunt. Yield (quantum yield, BDNCA library): 0.10

COc1cccc(Oc2ccccc2/C=C/C2=[N+]3C(=C(c4ccc(NC(=O)CCl)cc4)c4cccn4[B-]3(F)F)C(C)=C2)c1 [BDNCA-298]
Qunt. Yield (BDNCA library): 0.14
Abs (BDNCA library, absorption): 558 nm
Flu-Abs [7]: 23
ε [1]: 67,277
Flu [2]: 581

CC1=CC(/C=C/c2ccc(Br)s2)=[N+]2C1=C(c1ccc(NC(=O)CCl)cc1)c1cccn1[B-]2(F)F [BDNCA-100]
Qunt. Yield (BDNCA library): 0.10
Abs (BDNCA library, absorption): 574 nm
Flu-Abs [7]: 23
ε [1]: 48,879
Flu [2]: 597

CC1=CC(/C=C/c2cccc(OC(F)(F)C(F)F)c2)=[N+]2C1=C(c1ccc(NC(=O)CCl)cc1)c1cccn1[B-]2(F)F [BDNCA-345]
Abs [3]: 621 nm
ε [5]: 12,082
Flu [6]: weak
Qunt. Yield (quantum yield, BDNCA library): weak

CC1=CC(/C=C/c2ccc(-c3cccc(Cl)c3)o2)=[N+]2C1=C(c1ccc(NC(=O)CCl)cc1)c1cccn1[B-]2(F)F [BDNCA-284]
Qunt. Yield (BDNCA library): 0.04
Abs (BDNCA library, absorption): 595 nm
Flu-Abs [7]: 42
ε [1]: 31,579
Flu [2]: 637

CC1=CC(/C=C/c2ccc(OC(C)(C)C)cc2)=[N+]2C1=C(c1ccc(NC(=O)CCl)cc1)c1cccn1[B-]2(F)F [BDNCA-75]
Qunt. Yield (BDNCA library): 0.09
Abs (BDNCA library, absorption): 562 nm
Flu-Abs [7]: 38
ε [1]: 35,973
Flu [2]: 600

Cc1cc(/C=C/c2ccc(Oc3ccc(Cl)cc3)cc2)n2c1C(c1ccc(NC(=O)CCl)cc1)=C1C=CC=[N+]1[B-]2(F)F [BDNCA-277]
Qunt. Yield (BDNCA library): 0.15
Abs (BDNCA library, absorption): 561 nm
Flu-Abs [7]: 24
ε [1]: 65,080
Flu [2]: 585

CC1=CC(/C=C/c2ccc3ccccc3c2)=[N+]2C1=C(c1ccc(NC(=O)CCl)cc1)c1cccn1[B-]2(F)F [BDNCA-137]
Qunt. Yield (BDNCA library): 0.10
Abs (BDNCA library, absorption): 564 nm
Flu-Abs [7]: 20
ε [1]: 43,387
Flu [2]: 584

CC1=CC(/C=C/c2cc3ccccc3o2)=[N+]2C1=C(c1ccc(NC(=O)CCl)cc1)c1cccn1[B-]2(F)F [BDNCA-368]
Abs [3]: 578 nm
Flu-Abs [4]: 23
ε [5]: 21,968
Flu [6]: 601
Qunt. Yield (quantum yield, BDNCA library): 0.03

CC1=CC(/C=C/c2ccc(Oc3ccc(C)cc3)cc2)=[N+]2C1=C(c1ccc(NC(=O)CCl)cc1)c1cccn1[B-]2(F)F [BDNCA-300]
Qunt. Yield (BDNCA library): 0.21
Abs (BDNCA library, absorption): 563 nm
Flu-Abs [7]: 27
ε [1]: 102,151
Flu [2]: 590

CC1=CC(/C=C/c2cc(C)c(C)cc2C)=[N+]2C1=C(c1ccc(NC(=O)CCl)cc1)c1cccn1[B-]2(F)F [BDNCA-343]
Abs [3]: 562 nm
Flu-Abs [4]: 26
ε [5]: 28,284
Flu [6]: 588
Qunt. Yield (quantum yield, BDNCA library): 0.06

Cc1cc(/C=C/c2ccc(-c3ccccc3)o2)n2c1C(c1ccc(NC(=O)CCl)cc1)=C1C=CC=[N+]1[B-]2(F)F [BDNCA-319]
Abs [3]: 598 nm
Flu-Abs [4]: 58
ε [5]: 54,096
Flu [6]: 656
Qunt. Yield (quantum yield, BDNCA library): 0.05

Cc1cc(/C=C/c2ccccc2OC(F)F)n2c1C(c1ccc(NC(=O)CCl)cc1)=C1C=CC=[N+]1[B-]2(F)F [BDNCA-240]
Qunt. Yield (BDNCA library): 0.08
Abs (BDNCA library, absorption): 554 nm
Flu-Abs [7]: 19
ε [1]: 47,506
Flu [2]: 573

CC1=CC(/C=C/c2ccc(C(C)(C)C)cc2)=[N+]2C1=C(c1ccc(NC(=O)CCl)cc1)c1cccn1[B-]2(F)F [BDNCA-177]
Qunt. Yield (BDNCA library): 0.15
Abs (BDNCA library, absorption): 558 nm
Flu-Abs [7]: 23
ε [1]: 73,867
Flu [2]: 581

CC1=CC(/C=C/c2cc(Cl)cc(Cl)c2O)=[N+]2C1=C(c1ccc(NC(=O)CCl)cc1)c1cccn1[B-]2(F)F [BDNCA-57]
Qunt. Yield (BDNCA library): 0.02
Abs (BDNCA library, absorption): 561 nm
Flu-Abs [7]: 16
ε [1]: 23,066
Flu [2]: 577

CC1=CC(/C=C/c2ccc(OC(F)(F)F)cc2)=[N+]2C1=C(c1ccc(NC(=O)CCl)cc1)c1cccn1[B-]2(F)F [BDNCA-68]
Qunt. Yield (BDNCA library): 0.05
Abs (BDNCA library, absorption): 553 nm
Flu-Abs [7]: 20
ε [1]: 27,735
Flu [2]: 573

CC1=CC(/C=C/c2ccc(OCc3ccccc3)cc2)=[N+]2C1=C(c1ccc(NC(=O)CCl)cc1)c1cccn1[B-]2(F)F [BDNCA-90]
Qunt. Yield (BDNCA library): 0.04
Abs (BDNCA library, absorption): 563 nm
Flu-Abs [7]: 30
ε [1]: 20,046
Flu [2]: 593

CC1=CC(/C=C/c2cccc3c2OCO3)=[N+]2C1=C(c1ccc(NC(=O)CCl)cc1)c1cccn1[B-]2(F)F [BDNCA-231]
Qunt. Yield (BDNCA library): 0.04
Abs (BDNCA library, absorption): 559 nm
Flu-Abs [7]: 19
ε [1]: 33,227
Flu [2]: 578

COc1cc(/C=C/C2=[N+]3C(=C(c4ccc(NC(=O)CCl)cc4)c4cccn4[B-]3(F)F)C(C)=C2)ccc1OCCBr [BDNCA-268]
Qunt. Yield (BDNCA library): 0.12
Abs (BDNCA library, absorption): 569 nm
Flu-Abs [7]: 40
ε [1]: 54,371
Flu [2]: 609

CC1=CC(/C=C/c2cccc(Oc3ccccc3)c2)=[N+]2C1=C(c1ccc(NC(=O)CCl)cc1)c1cccn1[B-]2(F)F [BDNCA-20]
Qunt. Yield (BDNCA library): 0.11
Abs (BDNCA library, absorption): 556 nm
Flu-Abs [7]: 20
ε [1]: 51,625
Flu [2]: 576

COc1cc(Cl)c(/C=C/C2=[N+]3C(=C(c4ccc(NC(=O)CCl)cc4)c4cccn4[B-]3(F)F)C(C)=C2)c(Cl)c1O [BDNCA-220]
Qunt. Yield (BDNCA library): 0.01
Abs (BDNCA library, absorption): 559 nm
Flu-Abs [7]: 24
ε [1]: 40,915
Flu [2]: 583

Cc1cc(/C=C/c2ccc(OCc3ccc(Br)cc3)cc2)n2c1C(c1ccc(NC(=O)CCl)cc1)=C1C=CC=[N+]1[B-]2(F)F [BDNCA-52]
Qunt. Yield (BDNCA library): 0.05
Abs (BDNCA library, absorption): 556 nm
Flu-Abs [7]: 24
ε [1]: 36,247
Flu [2]: 580

CCCc1ccc(/C=C/C2=[N+]3C(=C(c4ccc(NC(=O)CCl)cc4)c4cccn4[B-]3(F)F)C(C)=C2)cc1 [BDNCA-77]
Qunt. Yield (BDNCA library): 0.09
Abs (BDNCA library, absorption): 559 nm
Flu-Abs [7]: 22
ε [1]: 45,034
Flu [2]: 581

CC1=CC(/C=C/c2ccccc2)=[N+]2C1=C(c1ccc(NC(=O)CCl)cc1)c1cccn1[B-]2(F)F [BDNCA-27]
Qunt. Yield (BDNCA library): 0.11
Abs (BDNCA library, absorption): 554 nm
Flu-Abs [7]: 23
ε [1]: 73,318
Flu [2]: 577

CC1=CC(/C=C/c2c(C)c(C)c(C)c(C)c2C)=[N+]2C1=C(c1ccc(NC(=O)CCl)cc1)c1cccn1[B-]2(F)F [BDNCA-67]
Qunt. Yield (BDNCA library): 0.12
Abs (BDNCA library, absorption): 542 nm
Flu-Abs [7]: 40
ε [1]: 36,522
Flu [2]: 582
